“Also recorded” adds a separate entry of the source. Where a SMILES comes first, the peptide text is derived from it.

A short description of this data set: Peptide stability in human plasma (RP-HPLC). The class given is in vitro ADME. The conditions noted are these: human plasma (EDTA blood, healthy volunteers), 37 °C, various time points, RP-HPLC with 0.1% trifluoroacetic acid, absorbance at 210 nm, average ± SEM of three separate experiments; result in words. The protocol: Figure 1 Peptide stability in plasma. Pentapeptide 1 was incubated in human plasma at 37 °C. Levels of the peptide remaining after various time points were analyzed by RP-HPLC in the presence of 0.1% trifluoroacetic acid and detected by absorbance at 210 nm. Peptide amounts were calculated relative to quantities determined at time point zero, and data shown are the average ± SEM of three separate experiments.
Blood was collected from healthy volunteers in EDTA blood collection tubes (BD Vacutainer, Mississauga, ON, Canada). Plasma was collected after centrifugation at 900× g and 20 °C for 10 min with decreased deceleration, aliquoted, and stored at −80 °C. All subjects gave their informed consent for inclusion before they participated in the study. The study was conducted in accordance with the Declaration of Helsinki, with all protocols approved by the Research Ethics Board at Health Sciences North Research Institute (Protocol # 18-061).
The stability of pentapeptide 1 in human plasma was analyzed using previously published methods.

`NCCCC[C@H](N)C(=O)N[C@@H](Cc1c[nH]c2ccccc12)C(=O)N[C@@H](CS)C(=O)N[C@@H](CCC(=O)O)C(=O)N[C@@H](CS)C(=O)O` [Peptide 1, KWCEC] (H-KWCEC-OH): the “Plasma stability: peptide remaining relative to time point zero” value was “No statistical difference was found between the two time points; also recorded: not recognized and cleaved by proteolytic enzymes”.
